Measurements: US20260224595A1, “COMPOUNDS FOR THE TREATMENT OF MYOTONIC DYSTROPHY” (ETH ZURICH, priority 2022, published 2026)

System: miR-122 targets
Assay: RNA-Seq of miR-122 targetome (negative control)
Assay type: cell-based, human
Experimental: As described in Example 3, total RNA was isolated from DM-patient and healthy cells, and cDNA libraries were prepared for three conditions (healthy volunteer (HV); DM; DM+Compound II) for DM1 and DM2 backgrounds. The expression levels of predicted targetomes of miRNAs let-7, miR-1, miR-9, miR-29, miR-30, miR-107 and miR-181 were then compared, using miR-122 as well as more than 2,000 transcripts that are not predicted targets of any miRNA as negative controls. Three pair-wise comparisons were performed to measure: i) how a targetome varies between healthy and diseased cells (HV versus DM), ii) how a targetome responds to treatment with the inventive compounds (DM versus DM+Compound II) and, iii) how a Compound II-treated DM-targetome compares to that of a healthy signature. For each pair-wise comparison, the third dataset was used as a reference and the fold changes were calculated for each target transcript (e.g. DM1 vs. DM1+Compound II, with fold changes calculated relative to HV).
Primary myoblasts or myotubes derived from DM1 or DM2 patient samples and non-DM healthy control individuals were cultured for 90% confluence and then treated with 120 μM Compound II for 72 h. […] Quality and size distribution of the generated libraries was validated using an Agilent 2100 bioanalyzer with high-sensitivity RNA chip (Agilent) and RNA yield was measured using the Qubit […] HS Assay Kit followed by pooling of the libraries in batches of 12 and sequencing of […] pooled library on an Nextseq 500/High Output Flow Cell Cartridge using a paired end, 2×76 reads, single index protocol.
RNA-Seq reads were mapped to the human genome (build GRCh38) using STAR (Dobin et al., (2013). STAR: ultrafast universal RNA-seq aligner. Bioinformatics 29, 15-21) with gene annotations from gencode (www.gencodegenes.org; version 40). Reads mapping uniquely to exons were counted for each gene using htseq-count (Anders et al., (2015). HTSeq—a Python framework to work with high-throughput sequencing data. Bioinformatics 31, 166-169) with the parameter -s reverse and -m intersection_strict. […]

## CC(=O)N(C)c1cccc(-c2ccc3nnc(C)n3n2)c1 [Compound II]
DM1 and DM2 myotubes, 120 μM, 72 h
  change of miR-122 targets: not significantly changed
DM1 myoblasts, 120 μM, 72 h
  change of miR-122 targets: not significantly changed
DM2 myoblasts, compared to targetomes of other miRNAs
  change of miR-122 targets: weaker change
